From ChEMBL document CHEMBL4765450, “The components and activities analysis of a novel anticoagulant candidate dHG-5” (Eur J Med Chem, 2020)
Calls of active or inactive are those of the source. No cut-off for these calls is given here.

How the values were obtained:
[1] = target: T1, Coagulation factor IX/VIII (Homo sapiens) (UniProt P00740+P00451); assay: (§1) Inhibition of human citrated plasma iXase (factor 8a-factor 9a complex) preincubated for 2 mins followed by factor 10 addition and measured after 1 min by FXa chromogenic substrate SXa-11 based assay relative to dHG-5; assay type: protein-complex assay; details: time 3.0 min
[2] = target: Prothrombin (Homo sapiens) (UniProt P00734); assay: Inhibition of factor 2a (unknown origin) at IC90 preincubated for 1 min followed by chromogenic substrate addition and measured for 2 mins in presence of AT-III; details: time 3.0 min
[3] = target: Coagulation factor XI (Homo sapiens) (UniProt P03951); assay: Inhibition of factor 11a (unknown origin) at IC50 using S-2366 as substrate preincubated for 1 min followed by chromogenic substrate addition and measured for 2 mins; details: time 3.0 min
Chain of Coagulation factor XI (Homo sapiens) (P03951 19-387 limits assumed): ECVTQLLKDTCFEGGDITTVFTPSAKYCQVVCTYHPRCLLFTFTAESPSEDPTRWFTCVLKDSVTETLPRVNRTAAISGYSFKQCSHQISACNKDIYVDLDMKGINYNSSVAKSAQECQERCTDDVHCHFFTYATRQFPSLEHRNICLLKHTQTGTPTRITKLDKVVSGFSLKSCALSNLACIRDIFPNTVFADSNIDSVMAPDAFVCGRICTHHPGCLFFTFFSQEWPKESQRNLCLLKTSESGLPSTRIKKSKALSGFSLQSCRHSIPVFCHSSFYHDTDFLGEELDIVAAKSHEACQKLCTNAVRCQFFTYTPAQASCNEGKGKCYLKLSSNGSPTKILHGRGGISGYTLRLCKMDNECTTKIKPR
Chain of Coagulation factor XI (Homo sapiens) (P03951 388-625 limits assumed): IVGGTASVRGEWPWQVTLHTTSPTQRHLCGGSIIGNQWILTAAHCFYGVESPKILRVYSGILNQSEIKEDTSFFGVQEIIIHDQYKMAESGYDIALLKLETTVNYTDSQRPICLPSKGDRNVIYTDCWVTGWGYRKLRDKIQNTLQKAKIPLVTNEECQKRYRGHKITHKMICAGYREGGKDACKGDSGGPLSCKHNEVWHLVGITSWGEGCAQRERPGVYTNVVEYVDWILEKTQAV

[4] = target: Coagulation factor X (Homo sapiens) (UniProt P00742); assay: Inhibition of factor 10a (unknown origin) at IC50 preincubated for 1 min followed by chromogenic substrate addition and measured for 2 mins in presence of AT-III; details: time 3.0 min
Chain of Coagulation factor X (Homo sapiens) (P00742 41-179 limits assumed): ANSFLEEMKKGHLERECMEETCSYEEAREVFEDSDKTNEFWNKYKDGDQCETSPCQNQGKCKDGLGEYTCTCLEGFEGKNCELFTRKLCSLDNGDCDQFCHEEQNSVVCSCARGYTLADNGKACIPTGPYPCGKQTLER
Chain of Coagulation factor X (Homo sapiens) (P00742 235-488 limits assumed): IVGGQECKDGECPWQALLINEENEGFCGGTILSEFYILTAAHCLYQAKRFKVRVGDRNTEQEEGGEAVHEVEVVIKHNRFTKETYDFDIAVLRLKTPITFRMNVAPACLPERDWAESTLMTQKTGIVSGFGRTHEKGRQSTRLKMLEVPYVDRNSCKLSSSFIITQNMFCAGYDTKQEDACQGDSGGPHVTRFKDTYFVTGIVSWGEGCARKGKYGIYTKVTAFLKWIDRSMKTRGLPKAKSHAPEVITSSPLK

[5] = target: T2, Coagulation factor XII (Homo sapiens) (UniProt P00748); assay: Inhibition of factor 12a (unknown origin) at IC50 using kallikrein chromogenic substrate preincubated for 1 min followed by chromogenic substrate addition and measured for 2 mins in presence of AT-III; details: time 3.0 min
T2 sequence (whole entry): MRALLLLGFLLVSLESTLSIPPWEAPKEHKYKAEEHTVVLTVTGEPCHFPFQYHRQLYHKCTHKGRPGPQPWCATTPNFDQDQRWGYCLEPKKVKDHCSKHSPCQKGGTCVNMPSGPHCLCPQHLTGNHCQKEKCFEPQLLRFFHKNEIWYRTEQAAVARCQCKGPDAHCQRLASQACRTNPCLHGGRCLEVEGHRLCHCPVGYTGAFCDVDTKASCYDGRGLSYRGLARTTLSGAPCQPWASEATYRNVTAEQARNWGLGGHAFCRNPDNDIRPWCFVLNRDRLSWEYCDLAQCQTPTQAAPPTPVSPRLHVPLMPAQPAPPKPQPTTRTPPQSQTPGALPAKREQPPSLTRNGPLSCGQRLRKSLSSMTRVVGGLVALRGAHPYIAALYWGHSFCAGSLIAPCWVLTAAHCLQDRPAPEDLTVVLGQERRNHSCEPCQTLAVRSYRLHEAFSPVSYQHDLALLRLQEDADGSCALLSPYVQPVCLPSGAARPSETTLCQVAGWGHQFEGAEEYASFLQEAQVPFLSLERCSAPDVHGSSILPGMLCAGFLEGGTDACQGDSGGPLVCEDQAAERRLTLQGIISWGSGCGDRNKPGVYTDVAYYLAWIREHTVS

[6] = test system: Plasma; assay: (§2) Anticoagulation activity in human plasma assessed as drug level causing 20 times doubling of APTT preincubated for 2 mins followed by APTT reagent and measured after 3 mins by coagulometric method relative to dHG-5; assay type: functional; details: time 5 min
[7] = target: Coagulation factor XI (Homo sapiens) (UniProt P03951); assay: Inhibition of factor 11a (unknown origin) at IC90 using S-2366 as substrate preincubated for 1 min followed by chromogenic substrate addition and measured for 2 mins in presence of AT-III; details: time 3.0 min
[8] = target: Prothrombin (Homo sapiens) (UniProt P00734); assay: Inhibition of factor 2a (unknown origin) at IC50 preincubated for 1 min followed by chromogenic substrate addition and measured for 2 mins in presence of AT-III; details: time 3.0 min
[9] = target: T1, Coagulation factor IX/VIII (Homo sapiens); assay: as §1, with “complex) assessed as activity potency of oligosaccharides multiplied by the percentage of oligosaccharides in dHG-5” for “complex)”; assay type: protein-complex assay; details: time 3.0 min
[10] = target: T3, Coagulation factor VII (Homo sapiens) (UniProt P08709); assay: Inhibition of factor 7a (unknown origin) at IC50 using pefachrome factor VIIa as substrate preincubated for 1 min followed by chromogenic substrate addition and measured for 2 mins; details: time 3.0 min
T3 sequence (whole entry): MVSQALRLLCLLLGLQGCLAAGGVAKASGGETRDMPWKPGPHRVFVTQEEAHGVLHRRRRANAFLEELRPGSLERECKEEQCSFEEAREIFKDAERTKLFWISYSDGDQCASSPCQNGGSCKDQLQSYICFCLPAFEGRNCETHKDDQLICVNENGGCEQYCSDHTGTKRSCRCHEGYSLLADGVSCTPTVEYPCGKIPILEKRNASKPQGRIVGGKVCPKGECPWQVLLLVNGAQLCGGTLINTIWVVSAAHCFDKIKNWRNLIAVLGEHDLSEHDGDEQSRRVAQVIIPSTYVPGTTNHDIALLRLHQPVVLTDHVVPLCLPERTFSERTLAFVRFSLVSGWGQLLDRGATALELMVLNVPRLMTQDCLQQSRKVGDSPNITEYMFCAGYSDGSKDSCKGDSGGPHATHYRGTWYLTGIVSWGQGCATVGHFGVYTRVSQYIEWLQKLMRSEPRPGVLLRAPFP

[11] = target: Coagulation factor X (Homo sapiens) (UniProt P00742); assay: Inhibition of factor 10a (unknown origin) at IC50 preincubated for 1 min followed by chromogenic substrate addition and measured for 2 mins; details: time 3.0 min
[12] = target: T4, Coagulation factor IX (Homo sapiens, UniProt P00740); assay: Inhibition of factor 9a (unknown origin) binding to immobilized biotinylated oHG-11 assessed as activity potency of oligosaccharides multiplied by the percentage of oligosaccharides in dHG-5 by biolayer interferometry relative to dHG-5
T4 sequence (P00740 47-191 limits assumed): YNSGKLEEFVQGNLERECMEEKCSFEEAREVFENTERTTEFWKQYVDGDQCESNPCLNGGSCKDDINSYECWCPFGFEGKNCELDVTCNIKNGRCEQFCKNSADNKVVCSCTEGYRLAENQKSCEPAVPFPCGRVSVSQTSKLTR
T4 sequence (P00740 227-461 limits assumed): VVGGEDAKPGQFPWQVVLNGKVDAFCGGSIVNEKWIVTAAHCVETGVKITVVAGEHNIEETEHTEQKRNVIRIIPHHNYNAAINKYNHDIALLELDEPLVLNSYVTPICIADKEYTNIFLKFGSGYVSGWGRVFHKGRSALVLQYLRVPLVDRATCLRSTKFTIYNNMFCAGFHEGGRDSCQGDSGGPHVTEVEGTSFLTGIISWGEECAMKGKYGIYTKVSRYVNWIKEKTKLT

[13] = target: T2, Coagulation factor XII (Homo sapiens); assay: Inhibition of factor 12a (unknown origin) at IC50 using kallikrein chromogenic substrate preincubated for 1 min followed by chromogenic substrate addition and measured for 2 mins; details: time 3.0 min
[14] = test system: Rattus norvegicus; assay: Antithrombotic activity in thromboplastin and stasis-induced Sprague-Dawley rat deep venous thrombosis model assessed as reduction in venous thrombosis by measuring activity potency of oligosaccharides multiplied by the percentage of oligosaccharides in dHG-5 at 1.84 mg/kg, sc administered 1 hr prior to thromboplastin addition for 20 secs followed by establishment of stasis for 20 mins relative to dHG-5; assay type: functional; details: time 80.33 min, 1.339 h
[15] = target: Coagulation factor X (Homo sapiens) (UniProt P00742); assay: Inhibition of factor 10a (unknown origin) at IC90 preincubated for 1 min followed by chromogenic substrate addition and measured for 2 mins in presence of AT-III relative to control; details: time 3.0 min
[16] = target: T3, Coagulation factor VII (Homo sapiens); assay: Inhibition of factor 7a (unknown origin) at IC50 using pefachrome factor VIIa as substrate preincubated for 1 min followed by chromogenic substrate addition and measured for 2 mins in presence of AT-III; details: time 3.0 min
[17] = test system: Plasma; assay: as §2, with “of APTT by measuring activity potency of oligosaccharides multiplied by the percentage of oligosaccharides in dHG-5 preincubated for” for “of APTT preincubated for”; assay type: functional; details: time 5 min
[18] = target: Coagulation factor XI (Homo sapiens) (UniProt P03951); assay: Inhibition of factor 11a (unknown origin) at IC50 using S-2366 as substrate preincubated for 1 min followed by chromogenic substrate addition and measured for 2 mins in presence of AT-III; details: time 3.0 min
[19] = target: Prothrombin (Homo sapiens) (UniProt P00734); assay: Inhibition of factor 2a (unknown origin) at IC50 preincubated for 1 min followed by chromogenic substrate addition and measured for 2 mins; details: time 3.0 min
[20] = target: T4, Coagulation factor IX; assay: Inhibition of factor 9a (unknown origin) binding to immobilized biotinylated oHG-11 by biolayer interferometry relative to dHG-5
[21] = test system: Rattus norvegicus; assay: Antithrombotic activity in thromboplastin and stasis-induced Sprague-Dawley rat deep venous thrombosis model assessed as reduction in venous thrombosis at 1.84 mg/kg, sc administered 1 hr prior to thromboplastin addition for 20 secs followed by establishment of stasis for 20 mins relative to dHG-5; assay type: functional; details: time 80.33 min, 1.339 h

Ratio [1] | inhibition [2] | inhibition [3] | inhibition [4] | inhibition [5] | inhibition [7] | inhibition [8] | Ratio [9] | inhibition (active/not active) [10] | inhibition [11] | Ratio [12] | inhibition [13] | inhibition [15] | inhibition [16] | inhibition [18] | inhibition [19] | Ratio [20] | Compound | Ratio [6] | Ratio [14] | Ratio [17] | also measured
384 U | Active | inactive | inactive | inactive | Active | inactive | 25.4 U | inactive | inactive | 11.7 U | inactive | inactive | inactive | inactive | inactive | 177 U | CC(=O)N[C@H]1[C@H](O[C@@H]([C@H](O[C@@H]2O[C@@H](C)[C@@H](OS(=O)(=O)[O-])[C@@H](OS(=O)(=O)O)[C@@H]2O)[C@@H](O)CO)[C@H](O)C(=O)[O-])O[C@H](COS(=O)(=O)[O-])[C@H](OS(=O)(=O)[O-])[C@@H]1O[C@@H]1O[C@H](C(=O)[O-])[C@@H](O[C@@H]2O[C@H](COS(=O)(=O)[O-])[C@H](OS(=O)(=O)[O-])[C@H](O[C@@H]3O[C@H](C(=O)[O-])[C@@H](O[C@@H]4O[C@H](COS(=O)(=O)[O-])[C@H](OS(=O)(=O)[O-])[C@H](O[C@@H]5O[C@H](C(=O)[O-])[C@@H](O[C@@H]6O[C@H](COS(=O)(=O)[O-])[C@H](OS(=O)(=O)[O-])[C@H](O[C@@H]7O[C@H](C(=O)[O-])[C@@H](O[C@@H]8O[C@H](COS(=O)(=O)[O-])[C@H](OS(=O)(=O)[O-])[C@H](O[C@@H]9O[C@H](C(=O)[O-])[C@@H](O[C@@H]%10O[C@H](COS(=O)(=O)[O-])[C@H](OS(=O)(=O)[O-])[C@H](O[C@@H]%11O[C@H](C(=O)[O-])[C@@H](O[C@@H]%12O[C@H](COS(=O)(=O)[O-])[C@H](OS(=O)(=O)[O-])[C@H](O[C@@H]%13OC(C(=O)O)=C[C@H](O[C@@H]%14O[C@@H](C)[C@@H](OS(=O)(=O)[O-])[C@@H](OS(=O)(=O)O)[C@@H]%14O)[C@H]%13O)[C@H]%12NC(C)=O)[C@H](O[C@@H]%12O[C@@H](C)[C@@H](OS(=O)(=O)[O-])[C@@H](OS(=O)(=O)O)[C@@H]%12O)[C@H]%11O)[C@H]%10NC(C)=O)[C@H](O[C@@H]%10O[C@@H](C)[C@@H](OS(=O)(=O)[O-])[C@@H](OS(=O)(=O)O)[C@@H]%10O)[C@H]9O)[C@H]8NC(C)=O)[C@H](O[C@@H]8O[C@@H](C)[C@@H](OS(=O)(=O)[O-])[C@@H](OS(=O)(=O)O)[C@@H]8O)[C@H]7O)[C@H]6NC(C)=O)[C@H](O[C@@H]6O[C@@H](C)[C@@H](OS(=O)(=O)[O-])[C@@H](OS(=O)(=O)O)[C@@H]6O)[C@H]5O)[C@H]4NC(C)=O)[C@H](O[C@@H]4O[C@@H](C)[C@@H](OS(=O)(=O)[O-])[C@@H](OS(=O)(=O)O)[C@@H]4O)[C@H]3O)[C@H]2NC(C)=O)[C@H](O[C@@H]2O[C@@H](C)[C@@H](OS(=O)(=O)[O-])[C@@H](OS(=O)(=O)O)[C@@H]2O)[C@H]1O.[Na+].[Na+].[Na+].[Na+].[Na+].[Na+].[Na+].[Na+].[Na+].[Na+].[Na+].[Na+].[Na+].[Na+].[Na+].[Na+].[Na+].[Na+].[Na+].[Na+].[Na+].[Na+].[Na+].[Na+].[Na+].[Na+].[Na+].[Na+].[Na+] | 232.47 U | 16.12 U | 15.39 U | Ratio [21]: 244.26 U
217 U | Active | inactive | inactive | inactive | Active | inactive | 24.4 U | inactive | inactive | 13.1 U | inactive | inactive | inactive | inactive | inactive | 116 U | CC(=O)N[C@H]1[C@H](O[C@@H]([C@H](O[C@@H]2O[C@@H](C)[C@@H](OS(=O)(=O)[O-])[C@@H](OS(=O)(=O)O)[C@@H]2O)[C@@H](O)CO)[C@H](O)C(=O)[O-])O[C@H](COS(=O)(=O)[O-])[C@H](OS(=O)(=O)[O-])[C@@H]1O[C@@H]1O[C@H](C(=O)[O-])[C@@H](O[C@@H]2O[C@H](COS(=O)(=O)[O-])[C@H](OS(=O)(=O)[O-])[C@H](O[C@@H]3O[C@H](C(=O)[O-])[C@@H](O[C@@H]4O[C@H](COS(=O)(=O)[O-])[C@H](OS(=O)(=O)[O-])[C@H](O[C@@H]5O[C@H](C(=O)[O-])[C@@H](O[C@@H]6O[C@H](COS(=O)(=O)[O-])[C@H](OS(=O)(=O)[O-])[C@H](O[C@@H]7O[C@H](C(=O)[O-])[C@@H](O[C@@H]8O[C@H](COS(=O)(=O)[O-])[C@H](OS(=O)(=O)[O-])[C@H](O[C@@H]9O[C@H](C(=O)[O-])[C@@H](O[C@@H]%10O[C@H](COS(=O)(=O)[O-])[C@H](OS(=O)(=O)[O-])[C@H](O[C@@H]%11OC(C(=O)[O-])=C[C@H](O[C@@H]%12O[C@@H](C)[C@@H](OS(=O)(=O)[O-])[C@@H](OS(=O)(=O)O)[C@@H]%12O)[C@H]%11O)[C@H]%10NC(C)=O)[C@H](O[C@@H]%10O[C@@H](C)[C@@H](OS(=O)(=O)[O-])[C@@H](OS(=O)(=O)O)[C@@H]%10O)[C@H]9O)[C@H]8NC(C)=O)[C@H](O[C@@H]8O[C@@H](C)[C@@H](OS(=O)(=O)[O-])[C@@H](OS(=O)(=O)O)[C@@H]8O)[C@H]7O)[C@H]6NC(C)=O)[C@H](O[C@@H]6O[C@@H](C)[C@@H](OS(=O)(=O)[O-])[C@@H](OS(=O)(=O)O)[C@@H]6O)[C@H]5O)[C@H]4NC(C)=O)[C@H](O[C@@H]4O[C@@H](C)[C@@H](OS(=O)(=O)[O-])[C@@H](OS(=O)(=O)O)[C@@H]4O)[C@H]3O)[C@H]2NC(C)=O)[C@H](O[C@@H]2O[C@@H](C)[C@@H](OS(=O)(=O)[O-])[C@@H](OS(=O)(=O)O)[C@@H]2O)[C@H]1O.[Na+].[Na+].[Na+].[Na+].[Na+].[Na+].[Na+].[Na+].[Na+].[Na+].[Na+].[Na+].[Na+].[Na+].[Na+].[Na+].[Na+].[Na+].[Na+].[Na+].[Na+].[Na+].[Na+].[Na+].[Na+].[Na+] | 203.41 U | 23.93 U | 22.82 U | Ratio [21]: 213.7 U
